The record followed here is patent publication US20230227435A1, “SMALL MOLECULE MODULATORS OF IL-17” (LEO PHARMA A/S, priority 2020, published 2023).

The target of the first assay is T1, human IL-17AA (Homo sapiens, UniProt Q16552).
T1 construct: host or cells: HEK (human embryonic kidney) cells
T1 sequence (Q16552 24-155) 1: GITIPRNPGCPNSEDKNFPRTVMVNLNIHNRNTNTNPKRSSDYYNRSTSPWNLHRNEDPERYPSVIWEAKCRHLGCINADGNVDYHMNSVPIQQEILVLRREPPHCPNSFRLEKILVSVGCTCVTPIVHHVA
T1 sequence (Q16552 24-155) 2: T1 sequence (Q16552 24-155) 1
Description: IL-8 release assay in human epithelial keratinocytes adult (HEKa). The settings on record: HEKa cells; 3 ng/mL HEK-human IL-17AA + 10 ng/mL human TNFalpha; 68-72 hours; IL-8 by HTRF. The format is cell-based. As for the experimental part: Example 8: IL-8 Release Assay in Human Epithelial Keratinocytes Adult (HEKa)
Keratinocytes were seeded at 3500 cells/well in 384-well ViewPlates (Perkin Elmer) in Epilife medium (Thermo Fisher) containing human keratinocyte growth supplement (HKGS) without hydrocortisone and incubated in a humid incubator at 37° C., 5% CO2, overnight. The following day growth medium was removed and 25 μl fresh Epilife medium was added. 75 nL test compound in100% DMSO was added into each well reserved for test compounds, by the use of acoustic pipetting. The remaining wells received an equal volume of DMSO only, as vehicle control, or terfenadine in DMSO, as a positive control for any cytotoxic compounds. Subsequently, another 25 μL Epilife medium was added to each well. Finally, wells containing test compounds and wells prepared to yield maximum stimulation received 25 μL of 9 ng/mL recombinant, human embryonic kidney cell (HEK)-derived human IL-17AA+30 ng/mL human TNF-alpha, in Epilife medium. Wells prepared to define 100% inhibition of IL-17 effects received 25 μL of 30 ng/mL human TNF-alpha alone, in Epilife medium. Final concentrations were 3 ng/mL HEK-human IL-17AA+10 ng/mL human TNFalpha (maximum stimulation) and 10 ng/mL human TNFalpha alone (100% inhibition, Emax), respectively. Cells were incubated for 68-72 hours in the incubator. IL-8 released from the cells was measured by the use of a commercial homogenous time-resolved fluorescence (HTRF) assay (CisBio). 2 μL cell culture supernatant was transferred to a 384-well Proxiplate. 5 μL HTRF reagent was added and the plates were incubated sealed in the dark for 3-22 hours at room temperature. Time-resolved fluorescence was read at 665 vs 620 nm, with excitation at 320 nm, and IL-8 levels were calculated as percent of controls. Reduction of the amount of secreted IL-8 indicates decreased IL-17 signaling. Concentration response curves were fitted by the use of a four-parameter logistic equation. Relative IC50 and Emax were reported from curves showing acceptable fit (r^2>0.9). Cytotoxicity was measured in the cell-containing Viewplates following addition of 7 μL PrestoBlue (Thermo Fisher) and incubation for 2.5-3 hours at room temperature, by measuring fluorescence at 615 nm (excitation at 535 nm). Fluorescence was directly proportional to the amount of metabolic activity. Reduction of fluorescence signal indicated cytotoxicity.
Compounds of the present invention were tested in the IL-8 release assay in human epithelial keratinocytes.
A general note: In TR-FRET formats the signal depends on donor and acceptor labels being close together.
For the compound `Cc1cn(C)nc1-c1nnc(C(C(=O)Nc2ccc(-c3c(C)n[nH]c3C)cc2)C(C2CC2)C2CC2)[nH]1` (centres unmarked) [Example 46, 3,3-dicyclopropyl-N-[4-(3,5-dimethyl-1H-pyrazol-4-yl)phenyl]-2-[5-(1,4-dimethylpyrazol-3-yl)-4H-1,2,4-triazol-3-yl]propanamide], the “Rel EC50 IL-8 release assay” value is reported as “no”.

The assay is the same for the next values; noted with them: HEKa cells; 3 ng/mL HEK-human IL-17AA + 10 ng/mL human TNFalpha; 68-72 hours; IL-8 by HTRF; read-out: Rel EC50 IL-8 release assay.
Take `COc1cc(-c2nnc(C(C(=O)Nc3ccc(-c4c(C)n[nH]c4C)cc3)C(C3CC3)C3CC3)[nH]2)ccn1` (centres unmarked) [Example 35, 3,3-dicyclopropyl-N-[4-(3,5-dimethyl-1H-pyrazol-4-yl)phenyl]-2-[5-(2-methoxy-4-pyridyl)-4H-1,2,4-triazol-3-yl]propanamide]: the EC50 (commonly the concentration needed to bring the measured effect to its halfway point) amounted to 160 nM.

Take `Cc1ccc(-c2nnc(C(C(=O)Nc3ccc(-c4c(C)n[nH]c4C)cc3)C(C3CC3)C3CC3)[nH]2)cn1` (centres unmarked) [Example 36, 3,3-dicyclopropyl-N-[4-(3,5-dimethyl-1H-pyrazol-4-yl)phenyl]-2-[5-(6-methyl-3-pyridyl)-4H-1,2,4-triazol-3-yl]propanamide]: the EC50 came out at 440 nM.

With `Cc1cnn(C)c1-c1nnc(C(C(=O)Nc2ccc(-c3c(C)n[nH]c3C)cc2)C(C2CC2)C2CC2)[nH]1` (centres unmarked) [Example 37, 3,3-dicyclopropyl-N-[4-(3,5-dimethyl-1H-pyrazol-4-yl)phenyl]-2-[5-(2,4-dimethylpyrazol-3-yl)-4H-1,2,4-triazol-3-yl]propanamide], the EC50 came to 380 nM.

Take `Cc1n[nH]c(C)c1-c1ccc(NC(=O)C(c2nnc(-c3cnn(C)c3C)[nH]2)C(C2CC2)C2CC2)cc1` (centres unmarked) [Example 38, 3,3-dicyclopropyl-N-[4-(3,5-dimethyl-1H-pyrazol-4-yl)phenyl]-2-[5-(1,5-dimethylpyrazol-4-yl)-4H-1,2,4-triazol-3-yl]propanamide]: the EC50 is 360 nM.

Consider `Cc1n[nH]cc1-c1nnc(C(C(=O)Nc2ccc(-c3c(C)n[nH]c3C)cc2)C(C2CC2)C2CC2)[nH]1` (centres unmarked) [Example 39, 3,3-dicyclopropyl-N-[4-(3,5-dimethyl-1H-pyrazol-4-yl)phenyl]-2-[5-(3-methyl-1H-pyrazol-4-yl)-4H-1,2,4-triazol-3-yl]propanamide], for which the EC50 stood at 500 nM.

Regarding `Cc1n[nH]c(C)c1-c1ccc(NC(=O)C(c2nnc(-c3cnnn3C)[nH]2)C(C2CC2)C2CC2)cc1` (centres unmarked) [Example 40, 3,3-dicyclopropyl-N-[4-(3,5-dimethyl-1H-pyrazol-4-yl)phenyl]-2-[5-(3-methyltriazol-4-yl)-4H-1,2,4-triazol-3-yl]propanamide], the EC50 is 860 nM.

On to `Cc1n[nH]c(C)c1-c1ccc(NC(=O)C(c2nnc(-c3cnoc3C)[nH]2)C(C2CC2)C2CC2)cc1` (centres unmarked) [Example 41, 3,3-dicyclopropyl-N-[4-(3,5-dimethyl-1H-pyrazol-4-yl)phenyl]-2-[5-(5-methylisoxazol-4-yl)-4H-1,2,4-triazol-3-yl]propanamide], for which the concentration for a half-maximal effect (EC50) was greater than 3250 nM.

For the compound `Cc1nocc1-c1nnc(C(C(=O)Nc2ccc(-c3c(C)n[nH]c3C)cc2)C(C2CC2)C2CC2)[nH]1` (centres unmarked) [Example 42, 3,3-dicyclopropyl-N-[4-(3,5-dimethyl-1H-pyrazol-4-yl)phenyl]-2-[5-(3-methylisoxazol-4-yl)-4H-1,2,4-triazol-3-yl]propanamide], the EC50 turned out to be 470 nM.

As for `Cc1n[nH]c(C)c1-c1ccc(NC(=O)C(c2nnc(-c3ccnn3C(C)C)[nH]2)C(C2CC2)C2CC2)cc1` (centres unmarked) [Example 43, 3,3-dicyclopropyl-N-[4-(3,5-dimethyl-1H-pyrazol-4-yl)phenyl]-2-[5-(2-isopropylpyrazol-3-yl)-4H-1,2,4-triazol-3-yl]propanamide], the EC50 was 66 nM.

Consider `Cc1n[nH]c(C)c1-c1ccc(NC(=O)C(c2nnc(-c3ccnn3C3CC3)[nH]2)C(C2CC2)C2CC2)cc1` (centres unmarked) [Example 44, 3,3-dicyclopropyl-2-[5-(2-cyclopropylpyrazol-3-yl)-4H-1,2,4-triazol-3-yl]-N-[4-(3,5-dimethyl-1H-pyrazol-4-yl)phenyl]propanamide], for which the EC50 was determined as 77 nM.

As to `Cc1n[nH]c(C)c1-c1ccc(NC(=O)C(c2nnc(-c3ccnn3CC3CC3)[nH]2)C(C2CC2)C2CC2)cc1` (centres unmarked) [Example 45, 3,3-dicyclopropyl-2-[5-[2-(cyclopropylmethyl)pyrazol-3-yl]-4H-1,2,4-triazol-3-yl]-N-[4-(3,5-dimethyl-1H-pyrazol-4-yl)phenyl]propanamide], the EC50 turned out to be 22 nM.

On to `Cc1cc(-c2nnc(C(C(=O)Nc3ccc(-c4c(C)n[nH]c4C)cc3)C(C3CC3)C3CC3)[nH]2)n(C)n1` (centres unmarked) [Example 47, 3,3-dicyclopropyl-N-[4-(3,5-dimethyl-1H-pyrazol-4-yl)phenyl]-2-[5-(2,5-dimethylpyrazol-3-yl)-4H-1,2,4-triazol-3-yl]propanamide], for which the EC50 was determined as 83 nM.

In the case of `COc1cncc(-c2nnc(C(C(=O)Nc3ccc(-c4c(C)n[nH]c4C)cc3)C(C3CC3)C3CC3)[nH]2)c1` (centres unmarked) [Example 48, 3,3-dicyclopropyl-N-[4-(3,5-dimethyl-1H-pyrazol-4-yl)phenyl]-2-[5-(5-methoxy-3-pyridyl)-4H-1,2,4-triazol-3-yl]propanamide], the EC50 turned out to be 130 nM.

Take `COc1ncccc1-c1nnc(C(C(=O)Nc2ccc(-c3c(C)n[nH]c3C)cc2)C(C2CC2)C2CC2)[nH]1` (centres unmarked) [Example 49, 3,3-dicyclopropyl-N-[4-(3,5-dimethyl-1H-pyrazol-4-yl)phenyl]-2-[5-(2-methoxy-3-pyridyl)-4H-1,2,4-triazol-3-yl]propanamide]: the EC50 turned out to be 460 nM.

For `Cc1cncc(-c2nnc(C(C(=O)Nc3ccc(-c4c(C)n[nH]c4C)cc3)C(C3CC3)C3CC3)[nH]2)c1` (centres unmarked) [Example 50, 3,3-dicyclopropyl-N-[4-(3,5-dimethyl-1H-pyrazol-4-yl)phenyl]-2-[5-(5-methyl-3-pyridyl)-4H-1,2,4-triazol-3-yl]propanamide], the EC50 came out at 110 nM.

For `CCOc1cc(-c2nnc(C(C(=O)Nc3ccc(-c4c(C)n[nH]c4C)cc3)C(C3CC3)C3CC3)[nH]2)ccn1` (centres unmarked) [Example 51, 3,3-dicyclopropyl-N-[4-(3,5-dimethyl-1H-pyrazol-4-yl)phenyl]-2-[5-(2-ethoxy-4-pyridyl)-4H-1,2,4-triazol-3-yl]propanamide], the EC50 is 100 nM.

`Cc1ncccc1-c1nnc(C(C(=O)Nc2ccc(-c3c(C)n[nH]c3C)cc2)C(C2CC2)C2CC2)[nH]1` (centres unmarked) [Example 52, 3,3-dicyclopropyl-N-[4-(3,5-dimethyl-1H-pyrazol-4-yl)phenyl]-2-[5-(2-methyl-3-pyridyl)-4H-1,2,4-triazol-3-yl]propanamide]: the EC50 was 180 nM.

With `Cc1ccncc1-c1nnc(C(C(=O)Nc2ccc(-c3c(C)n[nH]c3C)cc2)C(C2CC2)C2CC2)[nH]1` (centres unmarked) [Example 53, 3,3-dicyclopropyl-N-[4-(3,5-dimethyl-1H-pyrazol-4-yl)phenyl]-2-[5-(4-methyl-3-pyridyl)-4H-1,2,4-triazol-3-yl]propanamide], the EC50 was 73 nM.

For the compound `Cc1n[nH]c(C)c1-c1ccc(NC(=O)C(c2nnc(-c3ccnc(C(F)(F)F)c3)[nH]2)C(C2CC2)C2CC2)cc1` (centres unmarked) [Example 54, 3,3-dicyclopropyl-N-[4-(3,5-dimethyl-1H-pyrazol-4-yl)phenyl]-2-[5-[2-(trifluoromethyl)-4-pyridyl]-4H-1,2,4-triazol-3-yl]propanamide], the EC50 came to 76 nM.

For `Cc1n[nH]c(C)c1-c1ccc(NC(=O)C(c2nnc(-c3ccnc(C(F)F)c3)[nH]2)C(C2CC2)C2CC2)cc1` (centres unmarked) [Example 55, 3,3-dicyclopropyl-2-[5-[2-(difluoromethyl)-4-pyridyl]-4H-1,2,4-triazol-3-yl]-N-[4-(3,5-dimethyl-1H-pyrazol-4-yl)phenyl]propanamide], the EC50 was 27 nM.

With `COc1ccncc1-c1nnc(C(C(=O)Nc2ccc(-c3c(C)n[nH]c3C)cc2)C(C2CC2)C2CC2)[nH]1` (centres unmarked) [Example 56, 3,3-dicyclopropyl-N-[4-(3,5-dimethyl-1H-pyrazol-4-yl)phenyl]-2-[5-(4-methoxy-3-pyridyl)-4H-1,2,4-triazol-3-yl]propanamide], the EC50 was found to be 320 nM.

As for `Cc1n[nH]c(C)c1-c1ccc(NC(=O)C(c2nnc(-c3ccnn3CCCO)[nH]2)C(C2CC2)C2CC2)cc1` (centres unmarked) [Example 57, 3,3-dicyclopropyl-N-[4-(3,5-dimethyl-1H-pyrazol-4-yl)phenyl]-2-[5-[2-(3-hydroxypropyl)pyrazol-3-yl]-4H-1,2,4-triazol-3-yl]propanamide], the EC50 came out at 59 nM.
